US20240043467A1, “5'-SUBSTITUTED NUCLEOSIDE MONOPHOSPHATES, PRODRUGS THEREOF, AND USES RELATED THERETO” (EMORY UNIVERSITY, priority 2020, published 2024)

Molecular target: T1, Recombinant human thymidylate synthase (hTS) (Homo sapiens, UniProt P04818)
T1 construct: purchased Abcam
Experiment: Human thymidylate synthase inhibition assay
Format: biochemical
Settings: for hTS inhibition: highest concentration tested 20 μM
Description: Recombinant human thymidylate synthase (hTS) was purchased from Abcam. […] 5,10-Methylenetetrahydrofolate (calcium salt) was purchased from Boc Sciences and used without further purification.
The hTS inhibition assays were performed on a BioTek Synergy Neo2 plate reader equipped with a Xenon flash lamp and a photodiode array detector. The hTS reaction was conducted at room temperature in a buffer solution (pH 7.5) containing 50 mM Tris-HCl, 1 mM EDTA, 25 mM MgCl2, and 5 mM HCHO. […] 5,10-Methylenetetrahydrofolate was added last to initiate the reaction. Formation of the co-product, dihydrofolate, was monitored at 340 nm. The absorbance at 340 nm was plotted against the reaction time to calculate the reaction rate (i.e., the slope of the linear fitting). The reaction rates at different inhibitor concentrations were normalized to the reaction rate determined in the absence of inhibitor (100% enzymatic activity). The resulting % enzymatic activity values were plotted against the corresponding log value of the inhibitor concentration to construct concentration-response curves. IC50 values were then calculated using non-linear regression (four-parameter logistic equation, see Equation 1 below) in the GraphPad Prism v.9 software.
Y=Ymin+(Ymax−Ymin)/[1+10^((logIC50−X)×Hill Slope)] Equation 1

T1 sequence (P04818 whole entry): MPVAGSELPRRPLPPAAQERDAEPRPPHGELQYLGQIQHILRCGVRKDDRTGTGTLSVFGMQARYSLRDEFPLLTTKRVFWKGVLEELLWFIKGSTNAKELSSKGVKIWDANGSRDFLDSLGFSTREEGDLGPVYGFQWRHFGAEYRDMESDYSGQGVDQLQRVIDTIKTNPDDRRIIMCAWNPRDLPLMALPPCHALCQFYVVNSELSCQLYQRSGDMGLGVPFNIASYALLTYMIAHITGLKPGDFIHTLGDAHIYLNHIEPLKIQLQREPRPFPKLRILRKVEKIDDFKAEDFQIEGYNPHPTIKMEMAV

Structure (SMILES)	hTS inhibition	IC50 (50 μM dUMP, 0.84 μM hTS, five repeats, pH 7.5, room temperature, read-out: IC50 against hTS)
C[C@H](OP(=O)(O)O)[C@H]1O[C@@H](n2cc(F)c(=O)[nH]c2=O)C[C@@H]1O [MD-7-112, lithium (S)-1-((2S,3S,5R)-5-(5-fluoro-2,4-dioxo-3,4-dihydropyrimidin-1(2H)-yl)-3-hydroxytetrahydrofuran-2-yl)ethyl phosphate]	inactive	–
C[C@@H](OP(=O)(O)O)[C@H]1O[C@@H](n2cc(F)c(=O)[nH]c2=O)C[C@@H]1O [MD-7-105, lithium (R)-1-((2S,3S,5R)-5-(5-fluoro-2,4-dioxo-3,4-dihydropyrimidin-1(2H)-yl)-3-hydroxytetrahydrofuran-2-yl)ethyl phosphate]	–	1.21 µM
CC(C)(OP(=O)([O-])[O-])[C@H]1O[C@@H](n2cc(F)c(=O)[nH]c2=O)C[C@@H]1O.[Li+].[Li+] [MD-7-115, lithium 2-((2S,3S,5R)-5-(5-fluoro-2,4-dioxo-3,4-dihydropyrimidin-1(2H)-yl)-3-hydroxytetrahydrofuran-2-yl)propan-2-yl phosphate]	inactive	–
